Reference: US20130046171A1, “DEVICE AND METHOD FOR ACCESSING AND TREATING DUCTS OF MAMMARY GLANDS” (priority 2008, published 2013)

What was measured:
mammary tumors = conditions: NMU administered at 55 days of age; cited from earlier work
[1] = system: NMU-induced tumorigenesis in mammary glands; experiment: Prophylaxis of NMU-induced mammary tumorigenesis by intraductal injection; format: in vivo, Sprague Dawley rats; conditions: rats given NMU 50 mg/kg i.v. after treatment, monitored 8 months
Description: The mammary glands (6 on each side) of six virgin 50 day old Sprague Dawley rats were injected with AdHS-tk on the left side and trypan blue on the right side or left untreated. One rat remained completely untreated with the virus or GCV and served as a positive control for NMU-induced tumorigenesis. On the day of surgery, rats were given an intramuscular injection of 5 μg estradiol valerate and were anesthetized with an isofluorane/O2 mixture. The nipples were cannulated with a 33 gauge needle. Twenty μl of AdHS-tk diluted in trypan blue carrier (1 mM MgCl2, 20 μg/ml polybrene in 10% glycerol, 0.4% trypan blue in saline) at a concentration of 5×10^7 particles/μl were injected into the duct. Carrier control mammary glands received 20 μl of trypan blue carrier alone. An animal was considered treated when at least three glands were successfully injected with trypan blue and another three glands were successfully injected with AdHS-tk. The remaining glands were left untreated. Twelve hrs later, the rats were injected with 125 mg/kg body weight GCV twice daily for three days. […] Five to seven days after GCV treatment, the rats were given an intravenous injection of NMU dissolved in 0.05% acetic acid (Ash Stevens, CO; 50 mg NMU/kg body weight) and were subsequently monitored for general health and the appearance of tumors at weekly intervals for 8 months.

[2] = system: ductal carcinoma in situ, MNU-induced tumor formation; experiment: MNU-induced tumor formation rat model, teat infusion of anticancer agents; format: in vivo, Sprague Dawley rats; conditions: for incidence of tumor mass formation: within 6 months of MNU-injection; for rats with no visible masses or mammary lesions at necropsy: necropsy Day 180±2
Text: The objective of this study was to evaluate the efficacy of five test articles (four marketed anticancer agents), administered directly into the mammary gland ducts via teat infusion, for therapy and prevention of ductal carcinoma in situ in an N-Nitroso-N-Methylurea (MNU)-induced tumor formation rat model. Based upon previous animal studies, candidates were selected for more rigorous evaluation at B Braun Biological Test Center (BTC) in Irvine, Calif. This facility was chosen to continue the preclinical work, started by Dr. Sukumar at JHU in order to support studies with a larger number of animals, in compliance with Good Laboratory Practices.
The agents were tested in 120 female Sprague Dawley rats (n=20 per treatment). On Day 1, each rat was injected intraperitoneally with MNU to induce tumor formation. […] Rats were weighed prior to MNU injection, prior to intra-ductal infusion, and once weekly throughout the study.
Rats were observed twice daily for mortality/morbidity and 1-3 times weekly for general appearance, stool appearance, signs of toxicity, and palpable mass formation until death or euthanasia. […] At necropsy, organs and tissues were grossly observed, and the entire bilateral mammary gland system, visible masses, and abnormal tissues were collected and retained in formalin.

[3] = Dose escalation study of intraductal cytotoxic drugs in women prior to mastectomy, safety; format: in vivo; conditions: 300 mg dose, five subjects per group
Description: (§1) The study was performed in Cancer Hospital, Chinese Academy of Medical Sciences, Beijing, China where the standard of care includes a long preoperative hospital stay prior to mastectomy. Two drugs, pegylated liposomal doxorubicin (PLD) and carboplatin (C) were administered at 3 dose levels (PLD: 10, 20, 50 mg and carboplatin 60, 120, 300 mg) with the highest dose approximating the clinical intravenous dose. There were five subjects in each group with 15 subjects treated with each drug once. After informed consent, under local anesthesia subjects underwent cannulation of 5-8 ducts with intraductal instillation of the drug. Venous blood samples were obtained for pharmacokinetic analysis. The total dosage was divided by the number of cannulated ducts to yield a dose per duct. The breast was removed surgically as planned 2-5 days post treatment and the treated ducts were marked to enable identification on pathological evaluation. Intraductal administration was generally well-tolerated with mild, transient breast discomfort upon administration associated with the rate of infusion. Clinically significant laboratory adverse events were limited to decreases in hemoglobin following mastectomy, consistent with blood loss. […] In the carboplatin arm, three women at the 300 mg dose experienced mild nausea and vomiting.

[4] = Pharmacokinetic analysis of venous blood after intraductal administration; format: in vivo, women; conditions: intraductal carboplatin
Description: as §1

## CN(N=O)C(N)=O [NMU, N-Nitroso-N-Methylurea]
Mammary tumors
  female rats that develop mammary tumors: 90-100%

## Nc1nc(O)c2ncn(COC(CO)CO)c2n1 [No injection; Ganciclovir, Ganciclovir]
[1]
  % of Glands with Tumor: 25.0%
  No. of Tumors: 5

## CC(=O)O[C@H]1C(=O)[C@@]2(C)[C@H]([C@H](OC(=O)c3ccccc3)[C@]3(O)C[C@H](OC(=O)[C@H](O)[C@@H](NC(=O)c4ccccc4)c4ccccc4)C(C)=C1C3(C)C)[C@]1(OC(C)=O)CO[C@@H]1C[C@@H]2O [Taxol®, paclitaxel]
[2]; 0.15 mg/teat
  incidence of palpable masses during the course of the study: highest and most rapid
  incidence of tumor mass formation: highest incidence of mass formation
[2]; 0.15 mg/teat intraductal on Day 15
  number of rats with masses at final observations prior to death or euthanasia: 20 of 20
[2]; 0.15 mg/teat, necropsied 4 months post-MNU injection, 20 rats
  rats with visible masses at necropsy: 20 rats

## N.N.O=C([O-])C1(C(=O)[O-])CCC1.[Pt+2] [carboplatin]
[2]; 0.42 mg/teat
  rats with no visible masses or mammary lesions at necropsy: 5 of 20
[2]; 0.75 mg/teat
  incidence of palpable masses during the course of the study: lowest and least rapid
  rats with no visible masses or mammary lesions at necropsy: 7 of 19
  incidence of tumor mass formation: lowest incidence of tumor mass formation
[2]; 0.75 mg/teat intraductal on Day 15
  number of rats with masses at final observations prior to death or euthanasia: 11 of 20
[3]
  mild nausea and vomiting: three
[4]
  plasma ultrafiltrate AUC (area under the curve): consistent with the Calvert Formula using estimated GFR
[4]; systemic circulation
  peak time (tmax): ~30 min
